What was measured:
[1] = molecular target: T1, recombinant GC (Cerezyme) (Homo sapiens, UniProt P04062, R534H); experiment: recombinant GC activity assay; format: biochemical; details: tenfold molar excess of peptide, acid pH, relative to buffer control
T1 construct: purchased Genzyme Therapeutics, Boston, USA
T1 sequence (P04062 40-536 R534H): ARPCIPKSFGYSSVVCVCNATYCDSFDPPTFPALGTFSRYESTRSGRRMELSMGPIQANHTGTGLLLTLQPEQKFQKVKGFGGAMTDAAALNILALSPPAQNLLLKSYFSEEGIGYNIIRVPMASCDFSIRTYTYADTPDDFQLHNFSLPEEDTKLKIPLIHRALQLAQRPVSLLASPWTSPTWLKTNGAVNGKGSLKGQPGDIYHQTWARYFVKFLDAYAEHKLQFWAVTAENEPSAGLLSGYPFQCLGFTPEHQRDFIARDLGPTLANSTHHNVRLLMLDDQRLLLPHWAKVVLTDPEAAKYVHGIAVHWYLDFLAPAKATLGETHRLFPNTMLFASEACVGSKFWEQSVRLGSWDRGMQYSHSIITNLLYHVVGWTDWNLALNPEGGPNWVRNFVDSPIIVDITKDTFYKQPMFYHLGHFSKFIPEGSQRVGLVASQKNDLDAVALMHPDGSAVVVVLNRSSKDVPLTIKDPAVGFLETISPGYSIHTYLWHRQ
Experimental: (§1) Expression plasmids of LIMP-2 and human GC constructs were generated as described previously (1). For Western blotting nitrocellulose or PVDF membranes were used. EndoH/PNGaseF digests were performed according to manufacturer's instructions (New England Biolabs, Ipswich, USA). For co-immunoprecipitation experiments magnetic agarose G beads (Thermo Fisher Scientific, Waltham, USA) were utilized. Immunofluorescence studies were performed in cells as previously described (1, 3). Cellular co-localization of two proteins was determined by the Pearson's Index (35). Enzyme activity assays of cell lysates or recombinant protein were measured at acid pH using absorbent and fluorescent artificial substrates. For peptide studies, peptides were N-terminally tagged with biotin. If not stated otherwise, recombinant enzyme was incubated with a tenfold higher molarity of peptides. Conditions for pulldown experiments were kept at neutral pH. Protein modelling, molecular analyses, graphics and animations were performed with the UCSF Chimera package.
To determine the enzymatic activity of the recombinant enzymes, lyophilized enzymes were reconstituted in the NaPi buffer described above. The lyophilized samples of wild-type GC (Cerezyme®) and the custom-made recombinant N307S mutant enzyme contain 0.01% polysorbate 80 (Tween 80) (see prescription information for Cerezyme® at the website for Cerezyme®). As indicated in our experiments, the concentration of the detergent is sufficient to support active GC enzyme and to perform the in vitro GC activity assays without adding further detergents to the reaction mix. For enzyme activity assays of recombinant proteins, 0.1-0.2 nmol of GC (Cerezyme®; N370S) and LAMAN were used in the absence or presence of 10× the molar amount of LIMP-2-derived peptides (Table 1) or LIMP-2 ectodomain (1-2 nmol) (Table 3).
All activity assays were performed at acid pH.

[2] = molecular target: T1, recombinant GC (Cerezyme); experiment: peptide pulldown of recombinant GC; format: binding; details: biotinylated peptide, tenfold molar amount, neutral pH, streptavidin beads
Experimental: as §1
All peptides were purchased from jpt Peptide Technologies (Berlin, GER). […] The concentration of the peptides as well as the recombinant proteins was determined spectroscopically (Nanodrop 2000c; Thermo Fisher Scientific, Waltham, USA). […]

[3] = molecular target: T2, recombinant GC (Homo sapiens, UniProt P04062, R534H); experiment: stabilization assay of recombinant GC at 37° C.; format: biochemical; details: recombinant GC incubated with peptide at 37° C.
T2 construct: purchased Genzyme Therapeutics, Boston, USA
T2 sequence (P04062 40-536 R534H): T1 sequence (P04062 40-536 R534H)
Experimental: Proteins were visualized by coomassie staining (CBB). […] See also FIG. 6.
To address the functional impact of the observed interaction between the helix 5 peptide and recombinant GC, we measured GC activity in the presence of a one- to tenfold molar excess of the helix 5 peptide. […] No effect on enzymatic activity after incubation with the helix 5 peptide or the LIMP-2 ectodomain could be found for recombinant α-mannosidase (LAMAN) further emphasizing the specificity of the helix 5 peptide on GC activity (FIG. 6E). […] To analyze if the increase in GC activity is due to stabilization of the enzyme, recombinant GC was incubated with the helix 5 and the control peptide at 37° C. and the activity of GC was measured at regular intervals (FIG. 3F).

[4] = tested on: endogenous GC in Cos 7 cells; details: biotinylated peptide, neutral pH
Experimental: For pulldown of endogenous and overexpressed GC from N2a cell lysates 20 nmol of LIMP-2-derived peptide (Helix 5 and 3×D) was incubated with 50 μl cell lysate at 4° C. overnight. The cells were harvested in EBC-buffer (Table 3). After blocking and equilibration of the streptavidin beads (see above) the cell lysate/peptide mixtures were added to the beads for 30 min. at room temperature. The supernatant was removed. After extensive washing of the beads with NaPhosphate buffer, the bound peptides and proteins were released from the beads by incubation with Laemmli buffer (see above). After centrifugation for 2 min. at 17,000×g the supernatant was removed (BOUND fraction) and subjected to SDS-Page and Western-blotting. An antibody against human GC (α-hGC, for details see Table 4) was used for detection.

| Substance | increase of recombinant GC enzyme activity [1] | co-precipitation of recombinant GC [2] | time to complete loss of GC enzymatic activity [3] | co-precipitation of endogenous GC from cellular lysates [4] |
| --- | --- | --- | --- | --- |
| Biotin-Ttds-KFERQLREDDEAMDKAYQQKLFVTHTVDEYGRKKRRQRRR [control 3×D TAT-peptide, reference compound] | comparable effect | – | – | – |
| Biotin-Ttds-LREDDEAMDKAYQQKLFVTHTVDE [3×D control peptide, reference compound] | did not increase | only the wild-type helix 5 peptide specifically co-precipitated | ≤ 72 h | only the wild-type helix 5 peptide specifically co-precipitated |
| KRVQDVIERFWDFIDQLSINTFGK [random helical control peptide, reference compound] | not able to increase | – | – | – |

— patent US10286038B2, “Lysosome membrane protein 2 (LIMP-2) based peptides and related uses” (Northwestern University, priority 2016, dated 2019)
